Data published in patent US7863287B2, “Compositions of non-steroidal anti-inflammatory drugs, decongestants and anti-histamines” (Wyeth LLC, priority 2002, dated 2011).
Where a name gives a salt, the structure may show the parent alone.

System: seasonal allergic rhinitis
Experiment: Multicenter, placebo-controlled, double-blind, randomized multiple-dose efficacy trial in seasonal allergic rhinitis
Assay type: in vivo, human
Text: The study was a multicenter, outpatient, multiple-dose, placebo controlled, double-blind, double-dummy, parallel-group, randomized trial.
The study enrolled 1070 appropriately selected patients who were at least 12 years of age and included both males and females. […] Qualified subjects were required to undergo a 3-30 day run-in phase to establish that the patients had sufficiently severe allergy symptoms, during which time they reflectively assessed the severity of the following symptoms in the morning (upon waking) and in the evening (prior to bedtime): nasal congestion, sneezing, rhinorrhea, itchy nose/throat/palate; itchy/watery/red eyes and headache/facial pain/pressure/discomfort. The severity of each symptom was assessed using a 4-point categorical scale where 0=none (no symptom present), 1=mild (minimal awareness of symptom, symptom easily tolerated), 2=moderate (symptom present and bothersome, but tolerable) and 3=severe (symptom hard to tolerate; may cause interference with daily activities/sleeping). […] Patients were also assessed for allergy associated pain and were asked if they were in pain. […]

CN(C)CCC(c1ccc(Cl)cc1)c1ccccn1 (stereo not shown) [chlorpheniramine, chlorpheniramine maleate]
relief of histamine-mediated symptoms, result in words: more effective than the placebo
